Laboratory results: patent US10835611B2, “Neurotherapeutic nanoparticle compositions comprising leukemia inhibitory factor” (Yale University, priority 2012, dated 2020)

Assays:
[1] = tested on: primary rat E14 VM tissue; experiment: Anti-Thy-1 directed BDNF or 7,8-DHF nanoparticles versus free factor in primary rat E14 VM cultures; assay type: cell-based; conditions: 7 days in vitro
Procedure: To compare the effect of brain-derived neurotrophic factor (BDNF), or the BDNF agonist 7,8-dihydroxy flavone (7,8-DHF), when in a nano-particulate formulation targeted to Thy-1, versus free, primary rat E14 VM tissue was mixed with 100 μl of nanoparticle solution (0.05 mg; 0.1 mg; 1.0 mg nanoparticles/ml), or with free growth factor (10 nM; 100 nM; 1 μM; 10 μM) immediately prior to plating. After first confirming presence of Thy-1 antigen on the surface of TH+ neurons (data not shown), anti-Thy-1 decorated nanoparticles were prepared as either empty; or BDNF-nanoparticles; or 7,8 DHF-nanoparticles. Cultures were fixed after 7 days in vitro and analysed via immunocytochemistry for tyrosine hydroxylase positive cells. […] This is shown for 7,8 DHF-nanoparticles in FIG. 11A and FIG. 11B where the dose-response curve is similar to that reported by Jang et al (Jang et al, Proc. Natl. Acad. Sci. USA, 2010), with the exception of the high dose (10 μM) decline observed here.

[2] = tested on: dopaminergic neurons in E14 VM cultures; experiment: LIF treatment during dissociation of E14 VM tissue, TH+ neuron count in monolayer culture; assay type: cell-based, rat; conditions: tissue dissociated in 0.1 ng/ml LIF
Procedure: The VM of E14 rat foetuses was dissected and dissociated in medium with or without 0.1 ng/ml soluble LIF. The tissue was then plated in monolayer culture and grown for 2, 3 or 5 days prior to fixing. Dissociated cells were seeded in monolayer cultures and fixed after 2, 3 or 5 days in vitro (DIV).

[3] = tested on: dopaminergic neurons in E14 VM cultures; experiment: Dopaminergic apoptosis (TH, cleaved caspase-3, condensed nucleus) in E14 VM monolayer cultures; assay type: cell-based, rat
Procedure: A subset of tyrosine hydroxylase neurons co-localised with cleaved caspase-3 and a condensed nucleus, both markers of apoptotic cells. […] Immunocytochemical analysis was performed to determine whether LIF treatment (soluble or targeted nanoparticles) decreased the number of apoptotic dopaminergic neurons in these cultures.
E14 VM monolayer cultures, treated with soluble LIF or LIF/empty nanoparticles were fixed after 2, 3 or 5 days.

[4] = tested on: dopaminergic neurons in E14 VM cultures; experiment: Growth medium supplemented with soluble LIF, TH+ neuron count in E14 VM cultures; assay type: cell-based, rat
Procedure: The VM of E14 rat foetuses was dissected and dissociated in standard conditions. Primary E14 VM tissue was dissociated and grown as monolayer cultures. After plating cells were chronically treated with soluble LIF in their growth medium ranging from 0.1 ng/ml to 100 ng/ml.

[5] = tested on: E14 VM neural progenitor cells; experiment: E14 VM neurosphere expansion with soluble LIF, subsequent differentiation in monolayer culture; assay type: cell-based, rat; conditions: 0.1 ng/ml LIF during neurosphere expansion; monolayer without LIF
Procedure: To investigate the effect of LIF treatment on the differentiation of E14 VM, tissue was grown as neurospheres in expansion medium with or without 0.1 ng/ml soluble LIF. Primary ventral midbrain tissue was expanded in medium containing the mitogens EGF and FGF-2 for 5 days. These neurospheres were then dissociated into single cells and plated in monolayer culture in the absence of LIF. After 5 days of growth these cultures were analysed via immunocytochemistry for neural and astroglial differentiation (FIGS. 6A and 6B, showing morphology + or − LIF). The presence of LIF during the expansion of E14 VM had no effect on subsequent differentiation (FIG. 7 showing results after 5 and 10 days).

| Molecule | longest neurite length [1] | number of primary neurites [1] | serotonergic cells versus dopaminergic cells [1] | number of TH+ neurons ([2]; 3 and 5 days in vitro) | number of TH+ neurons ([2]; 2 days in vitro) | level of dopaminergic apoptosis ([3]; 2 days in vitro) | dopaminergic apoptosis ([3]; 3 days in vitro) | number of TH positive neurons ([4]; all LIF dosages above 0.1 ng/ml (up to 100 ng/ml)) | number of tyrosine hydroxylase positive neurons ([4]; growth medium with 0.1 ng/ml LIF, 3 and 5 days in vitro) | subsequent neural and astroglial differentiation [5] |
| --- | --- | --- | --- | --- | --- | --- | --- | --- | --- | --- |
| O=c1cc(-c2ccccc2)oc2c(O)c(O)ccc12 [7,8-DHF, 7,8-dihydroxy flavone, reference compound] | neither soluble 7,8-DHF nor 7,8-DHF-nano altered | neither soluble 7,8-DHF nor 7,8-DHF-nano altered | constant ratio |  |  |  |  |  |  |  |
| LIF: leukaemia inhibitory factor, member of the IL-6 family of cytokines, used soluble in medium |  |  |  | effect was lost | significantly more | significant reduction | did not reach statistical significance | no significant effect | significantly increase | no effect |
| BDNF: brain-derived neurotrophic factor (protein, UniProt P23560 19-247, looked up) Neurotrophic factor BDNF …: APMKEANIRGQGGLAYPGVRTHGTLESVNGPKAGSRGLTSLADTFEHVIEELLDEDQKVRPNEENNKDADLYTSRVMLSSQVPLEPPLLFLLEEYKNYLDAANMSMRVRRHSDPARRGELSVCDSISEWVTAADKKTAVDMSGGTVTVLEKVPVSKGQLKQYFYETKCNPMGYTKEGCRGIDKRHWNSQCRTTQSYVRALTMDSKKRIGWRFIRIDTSCVCTLTIKRGR | significant increase | significant increase | constant ratio |  |  |  |  |  |  |  |
